Measured values reported in US20250034212A1, “PEPTIDE” (PEPTIDREAM INC., priority 2021, published 2025).
Starred links: 1 amine or outer side, 2 acyl side, 3 side chain; linkers in the order of their positions; H or OH if unused. Positions of bridges follow the written chain, without caps; N, C: chain ends. Non-standard residues stand in square brackets, D forms with d. Residues, ends and D or L forms follow the SMILES beside them. Groups on a side chain read outwards from the residue. *: point of attachment. Meglumine = CN(C[C@H](O)[C@@H](O)[C@H](O)[C@H](O)CO)*; Piperazinyl(4-CH2COOH) = O=C(O)CN1CCN(*)CC1; 1Nal = N[C@@H](Cc1cccc2ccccc12)C(=O)O; Gly(NCH2CH2Ph) = O=C(O)CNCCc1ccccc1; 4Pal = N[C@@H](Cc1ccncc1)C(=O)O; CO = O=C([*:1])[*:2]

How the values were obtained:
recombinant human TGF-β1 [1] = target: T1, recombinant human TGF-β1 (Homo sapiens, UniProt P01137); test: SPR intermolecular interaction test, TGF-β1 immobilized on CM3 sensor chip (Biacore T200); assay type: binding; details: Single Cycle Kinetics, human TGF-β1
T1 construct: purchased R&D systems
T1 sequence (P01137 279-390 limits assumed): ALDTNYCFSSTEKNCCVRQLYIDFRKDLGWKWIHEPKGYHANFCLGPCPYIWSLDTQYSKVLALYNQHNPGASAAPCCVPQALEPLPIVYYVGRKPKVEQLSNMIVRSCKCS
Method: In this Example, (1) the activity of binding to TGF-β for various peptides consisting of the amino acid sequences set forth in SEQ ID NOs: 2-33 synthesized in Examples 1 to 5 and 7 was evaluated. (2) The activity and selectivity of binding of the peptide consisting of the amino acid sequence set forth in SEQ ID NO: 13 synthesized in Example 2 against two isoforms of TGF-β (TGF-β1 and β2) were checked. For this purpose, the intermolecular interaction of each peptide against TGF-β was tested by surface plasmon resonance (SPR) in the method described below. Specific test methods are described below.
A CM3 sensor chip (Global Life Science Technologies Japan Co., Ltd.) was inserted into a BiacoreT200 (Global Life Science Technologies Japan Co., Ltd.). Three priming runs were performed using running buffer: HBS-EP+ (Global Life Science Technologies Japan Co., Ltd.). The system was then equilibrated at a flow rate of 30 μL/min.
Subsequently, 50 μL of 60 mM EDC solution (Global Life Science Technologies Japan Co., Ltd.) and 50 μL of 650 mM NHS solution (Global Life Science Technologies Japan Co., Ltd.) were mixed. Next, the reaction was carried out at a flow rate of 10 μL/min for 420 seconds. Then, 150 μL of 0.2 μM TGF-β solution diluted in 10 mM acetic acid solution (pH 5.0) was prepared and reacted at a flow rate of 10 μL/min for 420 seconds to immobilize TGF-β on the CM3 sensor chip. TGF-β was human-derived TGF-β1 or β2 (recombinant human TGF-β1, 2) and was obtained from R&D systems. After immobilization, capping was performed by reacting with 1.0 M ethanolamine aqueous solution (Global Life Science Technologies Japan Co., Ltd.) at a flow rate of […] for 420 seconds.
A liquid prepared by dissolving each peptide at 10 mM in DMSO solution was diluted with running buffer to prepare a peptide-dissolved solution at a final concentration of 10 μM. Subsequently, 50 nM, 25 nM, 12.5 nM, 5 nM, and 2.5 nM peptide solutions were prepared. Using the above samples, the kinetics of each peptide against TGF-β was obtained by SPR measurement.
The kinetics evaluation model was Single Cycle Kinetics, and curve fitting was performed using Biacore T200 Evaluation Software Version 3.0 (Global Life Science Technologies Japan Co., Ltd.). The binding of various peptides to TGF-β was evaluated by performing least-squares curve fitting on the obtained sensorgram to calculate the KD value.

recombinant human TGF-β1 [2] = target: T1, recombinant human TGF-β1; test: SBE reporter assay in SBE reporter-HEK293 cells, TGF-β1 stimulation; assay type: cell-based; details: TGF-β1 0.13 nM, 18 hours; for inhibition at 62 pM: peptide 0.062 nM; for inhibition at 0.000185 µM: peptide 0.185 nM; for inhibition at 0.00056 µM: peptide 0.56 nM; for inhibition at 0.0017 µM: peptide 1.7 nM; for inhibition at 0.005 µM: peptide 5.0 nM; for inhibition at 0.015 µM: peptide 15.0 nM
From the text: The inhibitory activity of the peptide can be calculated without limitation while the maximum signal induced by TGF-β is set to 0% inhibition and no stimulation is set to 100% inhibition. When the peptide is used at an appropriate concentration, for example, at the optimal concentration, the inhibitory activity is not limited but the inhibition is 5% or more, 10% or more, 20% or more, 30% or more, 40% or more, 50% or more, 60% or more, 70% or more, 80% or more, or 90% or more.
In this Example, the TGF-β1 inhibitory activity of the peptide of the present invention consisting of the amino acid sequence set forth in SEQ ID NOs: 2-33 synthesized in Examples 1 to 5 and 7 was evaluated by an SBE reporter assay using the SBE reporter-HEK293 cell system (BP Bioscience) as follows.
SBE reporter-HEK293 cells were cultured in E-MEM (Wako) containing 10% FBS (Sigma). The cells were detached using Accutase (Innovative Cell Technologies), suspended in E-MEM containing 0.5% FBS, seeded onto a 96-well plate(s) at a concentration of 45,000 cells per well, and cultured overnight. The next day, the peptide was added and allowed to stand for 20 min, and recombinant human TGF-β1 (R&D systems) or recombinant human TGF-β2 (R&D systems) was then added at 0.13 nM and cultured for 18 hours.
Thereafter, luciferase assay ONE-Glo reagent was added to each well and the plate was shaken for 5 min. A SpectraMax Paradigm multimode microplate reader (Molecular Devices) was then used for signal detection. The obtained signals were analyzed by GraphPad Prism. The inhibitory activity of the peptide was calculated while the maximum signal induced by TGF-β was set to 0% inhibition and no stimulation was set to 100% inhibition.

Kd (recombinant human TGF-β1 [1]) [nM] | inhibition at 62 pM (recombinant human TGF-β1 [2]) [%] | inhibition at 0.000185 µM (recombinant human TGF-β1 [2]) [%] | inhibition at 0.00056 µM (recombinant human TGF-β1 [2]) [%] | inhibition at 0.0017 µM (recombinant human TGF-β1 [2]) [%] | inhibition at 0.005 µM (recombinant human TGF-β1 [2]) [%] | inhibition at 0.015 µM (recombinant human TGF-β1 [2]) [%] | Structure (SMILES)
0.91 | 6.49 | 20.8 | 53.8 | 85.2 | 97.1 | 99.5 | CC(C)[C@@H]1NC(=O)CN(CCc2ccccc2)C(=O)[C@H](CCCCNC(=O)N2CCN(CC(=O)O)CC2)NC(=O)[C@H](CC(=O)O)NC(=O)[C@H](Cc2ccncc2)NC(=O)[C@H](C(C)C)NC(=O)[C@H](CC(N)=O)NC(=O)[C@H](C(C)C)NC(=O)[C@H](C(C)C)NC(=O)[C@H](Cc2cccc3ccccc23)NC(=O)[C@H](Cc2ccccc2)NC(=O)CSC[C@@H](C(=O)NCC(N)=O)NC(=O)[C@H](CCCCNC(=O)N2CCN(CC(=O)O)CC2)NC(=O)[C@H](Cc2c[nH]cn2)NC(=O)[C@H](Cc2ccc(O)cc2)NC(=O)[C@H](Cc2cccc3ccccc23)NC1=O [TGFb1_022] ({CH2CO}-F[1Nal]VVNV[4Pal]DK([CO-Piperazinyl(4-CH2COOH)])[Gly(NCH2CH2Ph)]V[1Nal]YHK([CO-Piperazinyl(4-CH2COOH)])CG-NH2; thioether N-16)
0.82 |  |  |  |  |  |  | CC(C)[C@@H]1NC(=O)CN(CCc2ccccc2)C(=O)[C@H](CC(=O)O)NC(=O)[C@H](CC(=O)O)NC(=O)[C@H](Cc2ccncc2)NC(=O)[C@H](C(C)C)NC(=O)[C@H](CC(N)=O)NC(=O)[C@H](C(C)C)NC(=O)[C@H](C(C)C)NC(=O)[C@H](Cc2cccc3ccccc23)NC(=O)[C@H](Cc2ccccc2)NC(=O)CSC[C@@H](C(N)=O)NC(=O)[C@H](CCCCNC(=O)N2CCN(CC(=O)O)CC2)NC(=O)[C@H](Cc2c[nH]cn2)NC(=O)[C@H](Cc2ccc(O)cc2)NC(=O)[C@H](Cc2cccc3ccccc23)NC1=O [TGFb1_013] ({CH2CO}-F[1Nal]VVNV[4Pal]DD[Gly(NCH2CH2Ph)]V[1Nal]YHK([CO-Piperazinyl(4-CH2COOH)])C-NH2; thioether N-16)
1.04 | 5.79 | 16.6 | 45 | 80.2 | 95.5 | 98.9 | CC(C)[C@@H]1NC(=O)CN(CCc2ccccc2)C(=O)[C@H](CCC(=O)O)NC(=O)[C@H](CC(=O)O)NC(=O)[C@H](Cc2ccncc2)NC(=O)[C@H](C(C)C)NC(=O)[C@H](CC(N)=O)NC(=O)[C@H](CCCCNC(=O)N(C)C[C@H](O)[C@@H](O)[C@H](O)[C@H](O)CO)NC(=O)[C@H](C(C)C)NC(=O)[C@H](Cc2cccc3ccccc23)NC(=O)[C@H](Cc2ccccc2)NC(=O)CSC[C@@H](C(=O)NCC(N)=O)NC(=O)[C@H](CCCCNC(=O)N2CCN(CC(=O)O)CC2)NC(=O)[C@H](Cc2c[nH]cn2)NC(=O)[C@H](Cc2ccc(O)cc2)NC(=O)[C@H](Cc2cccc3ccccc23)NC1=O [TGFb1_024] ({CH2CO}-F[1Nal]VK([CO-Meglumine])NV[4Pal]DE[Gly(NCH2CH2Ph)]V[1Nal]YHK([CO-Piperazinyl(4-CH2COOH)])CG-NH2; thioether N-16)
